Test results from patent US6309825A, “Analytical and therapeutic agents” (University of Leicester, priority 1995, dated 2001).

What was measured:
[1] = molecular target: T1, avidin (Gallus gallus, UniProt P02701); assay: Enzyme-linked avidin binding assay, competition experiments; details: competitor 10 μM, co-incubation, avidin-HRP, paraformaldehyde-fixed DNA
T1 construct: mature chain without signal peptide
Protocol: Treatment of DNA with methylene blue leads to the oxidation of deoxyguanosine residues to 8-oxodeoxyguanosine. DNA (0.5 mg/ml in water) was incubated in the presence of methylene blue (20 μg/ml final concentration in 0.1 M tris, pH 8.5) in a petri dish on ice shielded from a white light source by 0.5 cm water in an upturned petri dish lid (light source to DNA distance was 3 cm). Irradiation was for 3 hours at which time solid sodium chloride was added to a final concentration of 1 M and the DNA precipitated with ethanol. The DNA was removed and dissolved in de-ionized water. The DNA was re-precipitated and washed twice more to remove any remaining methylene blue.
Avidin-horse radish peroxidase (avidin-HRP) (Sigma) binding to methylene blue-treated DNA was compared to its binding to untreated DNA. Treatment of DNA with methylene blue leads to the generation of oxidised base products including 8-oxodeoxyguanosine. Competition experiments were carried out to define the specificity of binding of avidin to DNA. Damaged and native DNA bind to ELISA plates and in initial experiments, native and methylene blue-treated double-stranded and single-stranded DNA were bound to ELISA plates (Immuno plate MAXISORP (RTM), Nunc) at 50 μg/ml in PBS (50 μl/well). However since it is difficult to quantify the amount of DNA remaining after the various procedures, Millipore MULTISCREEN (RTM)filtration plates were used in this experiment. Native and methylene blue-treated double-stranded and single-stranded DNA ([…] in water) was added to appropriate wells ([…]) of MULTISCREEN-HV 96-well plates. […] Following washing with PBS 3 times, detection of bound peroxidase-labelled avidin was performed using 50 μl/well of o-phenylenediamine (0.5 mg/ml in 0.05 M phosphate-citrate, pH 5.0, and containing 0.03% w/v sodium perborate as a substitute for H2 O2) as substrate; the reaction was stopped after 20 minutes at room temperature using 2M […] (25 μl/well) and the product determined spectrophotometrically at 492 nm. […]

[2] = molecular target: T1, avidin; assay: Fluorescent binding assay (FBA) with avidin-FITCS; details: for concentration at which avidin binding reached a maximum: base bound to a substratum of fixed cells, avidin-FITCS
Protocol: (§1) Cultures of IMR 32 cells were grown in 96-well plates as described above and allowed to differentiate. Untreated cultures were fixed and permeabilised as above to provide a substrate to which 8-oxodeoxyguanosinewould bind thus permitting FAAs to be performed. Various concentrations of either the normal or the oxidised base were incubated on these plates (100 μl/well) for 1 hour. The ELISA plates were then washed 3 times with PBS before visualising bound base with either avidin-conjugated FITCS (1:200 in PBS for 1 hour) or with a FITCS-conjugated anti-biotin monoclonal antibody (1:80 in PBS for 1 hour). The level of binding was quantified with a fluorescence plate reader (Denley, Billingshurst, U.K.), excitation 485 nm and emission 535 nm.

[3] = tested on: monoclonal antibody to biotin; assay: Fluorescent binding assay (FBA) with FITCS-conjugated anti-biotin monoclonal antibody; set-up: species or system goat; details: base bound to a substratum of fixed cells
Protocol: Avidin-FITCS conjugate was from Sigma (A 2050), as was monoclonal, goat anti-biotin-FITCS conjugate antibody (clone number BN-34) (F4024).
as §1

[4] = molecular target: T1, avidin; assay: Inhibition of avidin binding to hydrogen peroxide treated cells; details: avidin conjugate preincubated with competitor; all at 100 μM (biotin 10 μM)
Protocol: Cells were washed in warm PBS. Cultures were fixed and permeabilised with ice-cold methanol for 15 minutes, rehydrated in PBS before blocking with PBS containing 10% (w/v) normal goat serum (NGS). […] The control, PBS in the absence of competitor, was treated in parallel. […] Fixed cells were incubated with the solutions for 1 hour in the dark at room temperature. The slides were washed three times in PBS before coverslips were mounted on the slides using VECTORSHIELD (RTM) (Vector Laboratories, Peterborough, U.K.), a glycerol-based anti-bleaching mountant.

[5] = molecular target: T1, avidin; assay: Capillary electrophoresis analysis of binding
Protocol: Capillary electrophoresis was performed using a Beckman […].) controlled by accompanying System Gold (RTM) software. All analyses were carried out using an untreated fused silica capillary of 57 cm total length and 75 μm internal diameter. […] Samples were then placed on ice until analysed by CE. The electrophoresis solution was 10 mM sodium tetraborate (pH 9.3) filtered through a 0.45 μm filter. Samples were loaded using positive pressure (nominal 0.5 psi) for 5 seconds at 25° C. The run time was 10 minutes under an applied voltage of 30 kV with a rise time of 0.17 minutes (approx. 10.2 seconds). Detection was by absorbence at 200 nm and comparison with known standards. Concentration of each compound was estimated from peak height.

[6] = tested on: IMR 32 cells; assay: cells
Protocol: After differentiation, media was carefully aspirated and prewarmed Hanks buffered salt solution (HBSS) added to each well (200 μl) with or without various concentrations of freshly prepared hydrogen peroxide. The cultures were incubated with hydrogen peroxide for 1 hour after which the HBSS was replaced with fresh media (α-MEM with 5% (v/v) HIFCS and 1% (v/v) non-essential amino acids) and allowed to recover for 24 hours under standard incubation conditions before cell death was assessed using the MTT assay and binding of avidin assessed by fluorescence analysis.
Cells were prefixed by the addition of 2% (w/v) paraformaldehyde (in phosphate buffered saline (PBS) at pH 7.4) for 15 mins after washing the cells with PBS. Cells were washed in warm PBS. Cultures were fixed and permeabilised with ice-cold methanol for 15 minutes, rehydrated in PBS before blocking with PBS containing 10% (w/v) normal goat serum (NGS). The blocking solution was washed off with PBS containing 0.2% (w/v) NGS.

[7] = tested on: IMR 32 cells; assay: UVA exposure with α-tocopherol preincubation, fluorescent assessment of avidin binding; type: cell-based; details: 200 μM preincubation
Protocol: (§2) Differentiated cells were exposed to UVA irradiation with or without preincubation with the lipid-phase antioxidant α-tocopherol. The level of UVA irradiation was monitored in each experiment with a radiometer. Antioxidant was added to the existing medium 24 hours prior to irradiation at a final concentration of 200 μM (stock made up immediately prior to use in ethanol). […] Medium was removed prior to irradiation and cells washed in HBSS. The cells were irradiated from above at room temperature. Controls were sham irradiated. The cells were fixed as described below.
Cells were washed in warm PBS. Cultures were fixed and permeabilised with ice-cold methanol for 15 minutes, rehydrated in PBS before blocking with PBS containing 10% (w/v) normal goat serum (NGS). […] DNA damage was visualised with avidin-conjugated fluorescein isothiocyanate (FITCS) (1:200 in PBS for 1 hour) or with a FITCS-conjugated anti-biotin monoclonal antibody (1:80 in PBS for 1 hour) for either fluorescence microscopy or for quantitative assessment with a fluorescence plate reader (Denley, Billingshurst, U.K.).

[8] = tested on: IMR 32 cells; assay: MTT assay after UVA exposure; type: cell-based; details: α-tocopherol pre-incubation, 24 hours post-irradiation
Protocol: as §2

T1 sequence (P02701 25-152): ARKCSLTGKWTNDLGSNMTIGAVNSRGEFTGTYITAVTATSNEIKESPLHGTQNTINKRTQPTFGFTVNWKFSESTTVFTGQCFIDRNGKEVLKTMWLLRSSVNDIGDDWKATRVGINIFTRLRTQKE

Nc1nc2c([nH]c(=O)n2[C@H]2C[C@H](O)[C@@H](CO)O2)c(=O)[nH]1 [8-oxodeoxyguanosine]
inhibition of avidin binding to double-stranded, methylene blue treated DNA [1]: greatest inhibition | theoretical sensitivity of avidin binding (detectable amount) ([2]; assuming 100% binding of 8-oxodeoxyguanosine to the substratum): 10^4 molecules | concentration at which avidin binding reached a maximum [2]: 10^-15 M | concentration at which binding of the monoclonal antibody to biotin reached a maximum [3]: 10^-9 M | inhibition of avidin-FITCS binding to hydrogen peroxide treated cells [4]: inhibited binding

Nc1nc2nc[nH]c2c(=O)[nH]1 [guanine]
inhibition of avidin binding to double-stranded, methylene blue treated DNA [1]: inhibited binding | inhibition of avidin-FITCS binding to hydrogen peroxide treated cells [4]: did not

O=C(O)CCCC[C@@H]1SC[C@@H]2NC(=O)N[C@@H]21 [biotin]
recovery of unbound biotin after incubation with avidin ([5]; biotin 100 μM, various concentrations of avidin, theoretical values assume 4 biotin molecules per avidin): very close to the theoretical values expected | inhibition of avidin-FITCS binding to hydrogen peroxide treated cells [4]: prevented binding

Nc1nc2[nH]c(=O)[nH]c2c(=O)[nH]1 [8-oxoguanine]
rate of binding to avidin ([5]; purely chemical system, minimal preincubation): extremely rapid

Nc1nc2c(ncn2[C@H]2C[C@H](O)[C@@H](CO)O2)c(=O)[nH]1 [deoxyguanosine]
concentration at which avidin binding reached a maximum [2]: 10^-6 M | concentration at which binding of the monoclonal antibody to biotin reached a maximum [3]: 10^-9 M

OO [hydrogen peroxide]
hydrogen peroxide concentration at which the level of avidin binding plateaued ([6]; 1 hour exposure, 24 hours recovery): 100 nM | minimal effective concentration ([6]; Homo sapiens, IMR-32, 1 h, read-out: hydrogen peroxide concentration at which avidin binding was statistically different from control): 0.01 µM

Cc1c(C)c2c(c(C)c1O)CCC(C)(CCCC(C)CCCC(C)CCCC(C)C)O2 (stereo not drawn) [α-tocopherol]
effect on avidin binding to UVA irradiated cells, longer periods of irradiation ([7]; 24 hours post-irradiation): not effective in reducing binding | effect on avidin binding to UVA irradiated cells, short periods of irradiation ([7]; 24 hours post-irradiation): reduced the level of avidin binding | effect on avidin binding over the range of irradiation times studied ([7]; multiple range ANOVA): significantly (p=0.003) reduced the binding of avidin | effect on UVA-induced increase in MTT metabolism [8]: prevented

Nc1nc2c(ncn2[C@@H]2O[C@H](CO)[C@@H](O)[C@H]2O)c(=O)[nH]1 [guanosine]
inhibition of avidin binding to double-stranded, methylene blue treated DNA [1]: inhibited binding
